Patent US11400058B2, “Intravenous formulations of coenzyme Q10 (CoQ10) and methods of use thereof” (Berg LLC, priority 2010, dated 2022)
Like-named read-outs stand apart in the source and are kept apart here.

Assays:
[1] = test system: Sk-BR3; assay: Effect on Bcl-2 family, p53 and caspases in breast cancer cells; format: cell-based; settings: Sk-BR3, 50 and 100 μM
Experimental: (§1) Effect of CoQ10 on Breast Cancer: In another in vitro study, the effect of CoQ10 (50 and 100 μM) on various members of the Bcl-2 family (bcl-2, bcl-xl, bid, bad, bak, mcl-1, bim, and bax), p53, and caspases 4, 8, 12 in two breast cancer cell lines, MCF-7 and Sk-BR3, was evaluated. The Bcl-2 protein family has been implicated as the major contributing factor to conferral of resistance to cancer therapy.

[2] = test system: MCF-7; assay: as above; format: cell-based; settings: MCF-7, 50 and 100 μM
Experimental: as §1

[3] = test system: Caspase 3 in HDFa cells; assay: Western blot for Caspase 3 protein; format: cell-based; settings: 24 hours
Experimental: For the oxygen consumption rate assay, the oxygen consumption rates in the cell lines was determined using the Seahorse apparatus. The caspase 3 activity was determined using a colorimetric method using a commercially available kit according to manufacturer's instructions. The increase in the expression of Caspase 3 as a measure of apoptosis was determined by western blotting analysis using an antibody specific for detection of Caspase 3 protein.
Caspase 3 levels were determined in various cell lines following treatment with the same two CoQ10 N formulations as used above (the first formulation included 4% CoQ10; 3% DMPC; and 93% water, and the second formulation included 4% CoQ10; 3% DMPC; 1.5% Poloxamer P188; and 91.5% water). Specifically, PC-3, HepG2, MCF-7, HDFa and MIAPACA2 cells were treated with the CoQ10 IV formulation and harvested after 24 hours of treatment. The whole cell pellets of these cells were used for Western Blots. Sample volumes equivalent to 10 μg of protein were prepared with Lamelli Loading Dye (LDS) and water and run on a 4-12% Bis-Tris Novel NuPAGE gel on two 10 lane gels (15 μL loaded per lane) as detailed below. […]

[4] = Non-GLP four-week toxicity/toxicokinetic study in macaques (Mannheimer Foundation Study 2010-01); format: in vivo, sub-adult male macaques; settings: for Tmax: male, macaque, plasma, macaques
Source text: Plasma samples for toxicokinetic analysis were collected pre-dose, and at 0.25, 1, 6, 24, and 48 hr postdose on the first day of dosing. Pre-dose, but no post-dose samples were collected on Days 7, 14, 21 and 29. […] The increases for Cmax were slightly greater than directly dose-proportional. The increases for AUC0-t were apparently substantially greater than directly dose-proportional, but the nonlinearity may be in part a reflection of the sampling schedule.

[5] = beagle, dog, in vivo, iv
Experimental: (§2) In the second dog toxicity study, Charles River Study Number 20000334, CoQ10 IV Formulation was administered as short intravenous infusions at the rate of 5.0 mL/min three times a week for four weeks.
(§3) An additional two dogs/sex were included in each group and maintained for a 2-week recovery after treatment. A single test article concentration of 40 mg/mL was provided for use on the study. […] Parameters evaluated included cageside observations, clinical observations, body weight, food consumption, ophthalmoscopy, electrocardiography, clinical pathology, gross pathology, organ weights, and histopathology. Blood samples for determination of the plasma concentrations of CoQ10 IV Formulation were collected pre-dose and at 5, 15, 30 and 60 minutes and at 2, 4, 8 and 24 hours post-dose on Days 1 and 26.

[6] = in vivo; settings: beagle, dog, iv
Experimental: as §2, §3

In the case of `COC1=C(OC)C(=O)C(C/C=C(\C)CC/C=C(\C)CC/C=C(\C)CC/C=C(\C)CC/C=C(\C)CC/C=C(\C)CC/C=C(\C)CC/C=C(\C)CC/C=C(\C)CCC=C(C)C)=C(C)C1=O` [CoQ10, Coenzyme Q10], the “apoptosis (activation of caspase 3, 6 and 9)” value [1] is reported as “increased apoptosis”, the “levels of the anti-apoptotic members (bcl-xl, mcl-1, bcl-2)” value [1] is reported as “significantly decreased” and the “protein expression of pro-apoptotic members and BH3 subfamily members (bid, bad, bax, bim, bak)” value [1] is reported as “upregulated”. For the same compound, the “apoptosis (activation of caspase 3, 6 and 9)” value [2] was “increased apoptosis”, the “levels of the anti-apoptotic members (bcl-xl, mcl-1, bcl-2)” value [2] was “significantly decreased” and the “protein expression of pro-apoptotic members and BH3 subfamily members (bid, bad, bax, bim, bak)” value [2] was “upregulated”. For the same compound, the “intensity of Caspase 3 lower band” value [3] was “decreased”, the “Cmax and AUC0-t versus dose” value ([4]; macaques, 31.25, 62.5, 125 mg/kg IV, preliminary results) was “increased with increasing dose” and the Tmax ([4]; intravenous, one animal) was 60 min. The Tmax ([4]; 31.25-125 mg/kg IV, first day of dosing) was 15 min, the AUC0-t ([5]; female, 31.25 mg/kg) was 1207 µg·h/mL and the AUC0-t ([5]; female, 62.5 mg/kg) was 2735 µg·h/mL. The AUC0-t ([5]; female, 125 mg/kg) was 7370 µg·h/mL, the AUC0-t ([5]; male, 31.25 mg/kg) was 1038 µg·h/mL and the AUC0-t ([5]; male, 62.5 mg/kg) was 2719 µg·h/mL. For the same compound, the AUC0-t ([5]; male, 125 mg/kg) was 7151 µg·h/mL, the AUC0-t ([6]; female, 31.25 mg/kg) was 1220 µg·h/mL and the AUC0-t ([6]; female, 62.5 mg/kg) was 2920 µg·h/mL. It also gave an AUC0-t ([6]; female, 125 mg/kg) of 12500 µg·h/mL, an AUC0-t ([6]; male, 31.25 mg/kg) of 1130 µg·h/mL and an AUC0-t ([6]; male, 62.5 mg/kg) of 3350 µg·h/mL. For the same compound, the AUC0-t ([6]; male, 125 mg/kg) was 12800 µg·h/mL.
